The values below are quoted from earlier work in patent US4606909A, “Pharmaceutical multiple-units formulation” (priority 1981, dated 1986).

For this data set the following is noted: ambient temperature.

Turning to `CC(=O)S[C@@H]1CC2=CC(=O)CC[C@]2(C)[C@H]2CC[C@@]3(C)[C@@H](CC[C@@]34CCC(=O)O4)[C@H]12` [spironolactone], the “parts by volume of water required to dissolve 1 part by weight of the substance” value (shortened to “parts by volume of water required”) is listed as “more than 1000 parts by volume of water”.
As for `C[C@]12CC[C@H]3[C@@H](CCC4=CC(=O)CC[C@@]43C)[C@@H]1CC[C@@H]2O` [testosterone], the “parts by volume of water required” value is “more than 1000 parts by volume of water”.
On to `CCCCNC(=O)NS(=O)(=O)c1ccc(C)cc1` [tolbutamide], for which the “parts by volume of water required” value is reported as “more than 1000 parts by volume of water”.
